The values that follow come from the Deep4Chem optical property database.

Structures are written as SMILES.

One data set in a line: solvent given as SMILES. The following applies: in C1CCCCC1.
`CCC1=C(C)C2=Cc3cc(I)cn3[B-](F)(F)[N+]2=C1C`: the emission maximum amounted to 538.5 nm.
Still for that read-out and setting: the figure for `CC(C)CCC[C@@H](C)[C@H]1CC[C@H]2[C@@H]3CC=C4C[C@@H](OC(=O)Oc5cc(/C=C/C=C/c6ccc(N(C)C)cc6)ccc5[N+](=O)[O-])CC[C@]4(C)[C@H]3CC[C@]12C` is 505 nm.
The same measure, in the same setting: with `CCCCCCCCOc1ccc(C2=C(c3ccc(OCCCCCCCC)cc3)C(C)(C)c3ccccc32)cc1` the figure was 390 nm; with `CC1=[N+]2C(=C(c3ccc(C(=O)c4ccccc4)cc3)c3ccc(C)n3[B-]2(F)F)C=C1c1cc2n(c1)[B-](F)(F)[N+]1=CC=CC1=C2c1c(C)cc(C)cc1C`, 645 nm; with `COc1ccc2c3c(c4ccc(OC)cc4c2c1)C(C)(C)c1c-3ccc2ccccc12`, 396 nm.

Staying with this data set, now noted: in C1CCOC1.
Consider `C[P+](c1c2ccccc2cc2ccccc12)(c1c2ccccc2cc2ccccc12)c1c2ccccc2cc2ccccc12`, for which the emission maximum is on record as 494 nm.
The same measure, in the same setting: the figure for `CC(C)CCC[C@@H](C)[C@H]1CC[C@H]2[C@@H]3CC=C4C[C@@H](OC(=O)Oc5cc(/C=C/C=C/c6ccc(N(C)C)cc6)ccc5[N+](=O)[O-])CC[C@]4(C)[C@H]3CC[C@]12C` is 677 nm; for `C1=Cc2ccccc2C(=Cc2ccc(-c3ccc(C=C4c5ccccc5-c5ccccc54)cc3)cc2)c2ccccc21` it is 450 nm.
As for `CCN1\C(=C/C=C/C=C/C2=[N+](CC)c3ccc4cc(Br)ccc4c3C2(C)C)C(C)(C)c2c1ccc1cc(Br)ccc21`, the emission maximum is 709 nm.
The same measure, in the same setting: with `O=S(=O)([O-])c1ccccc1/C=C/c1ccc(-c2nnc(-c3ccc(/C=C/c4ccccc4S(=O)(=O)[O-])cc3)o2)cc1` the figure was 415 nm; with `COc1cc(/C=C/c2ccncc2)c(OC)cc1C=O`, 448 nm.
Same read-out and setting: with `CCCCOc1ccc2cc(-c3ccc(C)cc3)c(=O)oc2c1` the figure was 423 nm.

Still in this data set, the particulars now being: in C1COCCO1.
`CC(C)CCC[C@@H](C)[C@H]1CC[C@H]2[C@@H]3CC=C4C[C@@H](OC(=O)Oc5cc(/C=C/C=C/c6ccc(N(C)C)cc6)ccc5[N+](=O)[O-])CC[C@]4(C)[C@H]3CC[C@]12C` came in with an emission maximum of 620 nm.
Same read-out and setting: the figure for `CN(C)c1nc(N)nc2c1nc(C#N)n2Cc1ccccc1` is 373 nm.

The data set is the same for the next values; noted with them: in CC1CCCCC1.
The compound `c1ccc2c(c1)Sc1ccccc1S2` returned an emission maximum of 431 nm.

Staying with this data set, now noted: in CC#N.
`Cc1ccc(C)n1-c1ccc(N(C)C)cc1` registered an emission maximum of 360 nm.
The same measure, in the same setting: the figure for `Cc1cc(O)c(C(=O)/C=C/c2ccc(Cl)cc2)c(=O)o1` is 497 nm; for `F[B-]1(F)n2c(Cl)ccc2C(c2c(Cl)cccc2Cl)=C2C=CC(NCc3ccccc3)=[N+]21` it is 532 nm.
On the same count and under the same terms, the figure for `CCN1\C(=C/C=C/C=C/C2=[N+](CC)c3ccc4cc(Br)ccc4c3C2(C)C)C(C)(C)c2c1ccc1cc(Br)ccc21` is 699 nm; for `COc1cc(/C=C/c2ccncc2)c(OC)cc1C=O` it is 465 nm; for `CN(C)c1ccc(-n2c(-c3ccncc3)nc3ccccc32)cc1` it is 556 nm.
Still for that read-out and setting: the figure for `COC(=O)/C=C/c1sc(-c2ccc(N(C)C)cc2)c(-c2cccnc2)c1N` is 593 nm; for `CCCCCC(=O)c1c2c(c(C(=O)CCCCC)c3c1OC1(CCCC1)O3)OC1(CCCC1)O2` it is 561 nm.
The compound `CN(C)c1nc(N)nc2c1nc(C#N)n2Cc1ccccc1` had an emission maximum of 378 nm.
On the same count and under the same terms, the figure for `CN(C)CCCN1c2ccccc2Sc2ccc(C(F)(F)F)cc21` is 470 nm.

The data set is the same for the next values; noted with them: in CC(C)=O.
Regarding `CCC1=C(C)C2=Cc3cc(I)cn3[B-](F)(F)[N+]2=C1C`, the emission maximum is on record as 541 nm.
Same read-out and setting: the figure for `CCN1\C(=C/C=C/C=C/C2=[N+](CC)c3ccc4cc(Br)ccc4c3C2(C)C)C(C)(C)c2c1ccc1cc(Br)ccc21` is 703 nm; for `O=S(=O)([O-])c1ccccc1/C=C/c1ccc(-c2nnc(-c3ccc(/C=C/c4ccccc4S(=O)(=O)[O-])cc3)o2)cc1` it is 416 nm.

The same data set, now with this note: in CCCCCC.
Compound `Cc1ccc(C)n1-c1ccc(N(C)C)cc1` registered an emission maximum of 347 nm.
The same measure, in the same setting: the figure for `F[B-]1(F)n2c(Cl)ccc2C(c2c(Cl)cccc2Cl)=C2C=CC(NCc3ccccc3)=[N+]21` is 538 nm.
The same measure, in the same setting: with `CCCCOc1ccc2cc(-c3ccc(C)cc3)c(=O)oc2c1` the figure was 416 nm.
Still for that read-out and setting: the figure for `CCCCCC(=O)c1c2c(c(C(=O)CCCCC)c3c1OC1(CCCC1)O3)OC1(CCCC1)O2` is 525 nm.

The data set is the same for the next values; noted with them: in CCCCCCC.
`CC(C)CCC[C@@H](C)[C@H]1CC[C@H]2[C@@H]3CC=C4C[C@@H](OC(=O)Oc5cc(/C=C/C=C/c6ccc(N(C)C)cc6)ccc5[N+](=O)[O-])CC[C@]4(C)[C@H]3CC[C@]12C` returned an emission maximum of 502 nm.

Still in this data set, the particulars now being: in CCO.
In turn, `CCC1=C(C)C2=Cc3cc(I)cn3[B-](F)(F)[N+]2=C1C` showed an emission maximum of 543 nm.
Still for that read-out and setting: with `Cc1c(COC(=O)Cc2c[nH]c3ccccc23)n2c(OCC(=O)Cc3c[nH]c4ccccc34)c(C)c(=O)n2c1=O` the figure was 452 nm; with `CCN1\C(=C/C=C/C=C/C2=[N+](CC)c3ccc4cc(Br)ccc4c3C2(C)C)C(C)(C)c2c1ccc1cc(Br)ccc21`, 705 nm; with `CCCCOc1ccc2cc(-c3ccc(C)cc3)c(=O)oc2c1`, 429 nm.
Take `CCCCCC(=O)c1c2c(c(C(=O)CCCCC)c3c1OC1(CCCC1)O3)OC1(CCCC1)O2`: the emission maximum was determined as 596 nm.

Still in this data set, the particulars now being: in CCOC(C)=O.
Compound `CCC1=C(C)C2=Cc3cc(I)cn3[B-](F)(F)[N+]2=C1C` had an emission maximum of 540.5 nm.
As to `CC1=[N+]2C(=C(c3ccc(C(=O)c4ccccc4)cc3)c3ccc(C)n3[B-]2(F)F)C=C1c1cc2n(c1)[B-](F)(F)[N+]1=CC=CC1=C2c1c(C)cc(C)cc1C`, the emission maximum was found to be 664 nm.
Still for that read-out and setting: with `F[B-]1(F)n2c(Cl)ccc2C(c2c(Cl)cccc2Cl)=C2C=CC(NCc3ccccc3)=[N+]21` the figure was 532 nm.

The data set is the same for the next values; noted with them: in CN(C)C=O.
As for `COC(=O)C(N)Cc1ccc(O[Si]2(Oc3ccc(CC(N)C(=O)OC)cc3)n3c4c5ccccc5c3/N=C3N=C(/N=c5/c6ccccc6/c(n52)=N/C2=NC(=N\4)/c4ccccc42)c2ccccc2\3)cc1` (configuration not stated), the emission maximum worked out at 687 nm.
For `CCN1\C(=C/C=C/C=C/C2=[N+](CC)c3ccc4cc(Br)ccc4c3C2(C)C)C(C)(C)c2c1ccc1cc(Br)ccc21`, the emission maximum was found to be 705 nm.
The same measure, in the same setting: the figure for `O=S(=O)([O-])c1ccccc1/C=C/c1ccc(-c2nnc(-c3ccc(/C=C/c4ccccc4S(=O)(=O)[O-])cc3)o2)cc1` is 422 nm.
Still for that read-out and setting: with `COc1cc(/C=C/c2ccncc2)c(OC)cc1C=O` the figure was 463 nm.

The same data set, now with this note: in CO.
Consider `CCC1=C(C)C2=Cc3cc(I)cn3[B-](F)(F)[N+]2=C1C`, for which the emission maximum stood at 542.5 nm.
Still for that read-out and setting: the figure for `CC[n+]1c(C=C2C(=O)C(C=C3Sc4cc(Cl)ccc4N3C)=C2[O-])[se]c2ccccc21` is 674 nm.
